Measured values taken from patent US20110160147A1, “NOVEL DUAL TARGETING A[…]” (priority 2008, published 2011).

Legend:
[1] = test system: PC3 prostate carcinoma cells; assay type: cell-based, human; details: PC3, 1 h of treatment; read-out: IC50 ± SD, antiadhesive effect to vitronectin
Method: (§1) A2780 human ovarian carcinoma and PC3 prostate carcinoma cells were grown in medium culture RPMI 1640 containing 10% fetal bovine serum and 50 μg/ml gentamycin sulfate. Cells were maintained in a 37° C. incubator with saturated humidity and an atmosphere of 95% air and 5% CO2. A2780 tumour cell line expresses high levels of αvβ5 integrin, and PC3 low levels of both integrins.
(§2) In 96-well tissue culture plates, 50 μl/well of a solution of vitronectin (5 μg/ml) were added for 2 h at room temperature. The solutions were removed upsetting the plates. 50 μl/well of a solution 1% BSA were added for 1 h at RT. The plates were washed by addition of 100 μl/well of medium culture RPMI 1640 without fetal calf serum (FCS). The washing was repeated twice. The molecules were added at different concentrations in the range between 0.039 μM and 20 μM. The solutions were prepared by dilution 1:2 in medium culture without FCS. Tumour cells in the flasks were washed in saline solution before to be detached by scraper, by the addition of 5 ml of medium culture without FCS and 1% BSA. Tumour cells were counted after resuspension and added at an appropriate cellular density (40000-50000 cells/well). The plates were incubated for 1 h at 37° C. in humidified incubator with 5% CO2. Then, the solutions were removed upsetting the plates and washed once with 200 μl/well of PBS with Ca^2+ e Mg^2+. Tumour cells were fixed with 100 μl of a solution 4% paraformaldehyde in 0.2 M Sorensen phosphate buffer pH 7.2-7.4 for 10 min at RT The plates were upset and 100 μl of 1% Toluidine Blu solution were added for 10 min at RT The plates were washed twice by immersion in bi-distilled water and then dried at 60° C. in thermostat incubator (Kottermann). 100 μl/well of 1% SDS were added. The plates were kept under stirring for 20 min at RT and were then evaluated by Victor 1420 multilabel counter (Wallac) at 600 nm.
(§3) The IC50 value as parameter to measure the inhibiting effect of the molecules on tumour cell adhesion to vitronectin was evaluated using “ALLFIT” computer program.

[2] = test system: A2780 ovarian carcinoma cells; assay type: cell-based, human; details: A2780, 1 h of treatment; read-out: IC50 ± SD, antiadhesive effect to vitronectin
Method: as §1, §2, §3

αvβ5 receptors = αvβ5 receptors (Homo sapiens, UniProt P06756+P18084); test: Solid-phase binding assay, inhibition of [125I]Echistatin binding to αvβ5 receptors
Method: (§4) The receptor binding assays were performed as described (Orlando R. A., et al., J. Biol. Chem. 1991, 266, 19543). αvβ3 and αvβ5 were diluted to 500 ng/ml and 1 μg/ml, respectively, in coating buffer (20 mM Tris, pH 7.4, 150 mM NaCl, 2 mM CaCl2, 1 mM MgCl2, 1 mM MnCl2) and an aliquot of 100 μL was added to a 96-well microtiter plate and incubated overnight at 4° C. The plate was washed once with blocking/binding buffer (50 mM Tris, pH 7.4, 100 mM NaCl, 2 mM CaCl2, 1 mM MgCl2, 1 mM MnCl2, 1% bovine serum albumin), and then was incubated for additional 2 h at RT The plate was rinsed twice with the same buffer and incubated for 3 h at RT with radiolabeled ligand [^125I]Echistatin (Amersham Pharmacia Biotech) 0.05 nM (0.1 nM for αv β5) in the presence of competing inhibitors. After the incubation, the wells were washed and radioactivity was determined with a gamma-counter (Packard). Non-specific binding of ligand was determined with molar excess (200 nM) of cold echistatin.
(§5) The IC50 values reported in Tables 1 and 2 were calculated as the concentrations of compounds required for 50% inhibition of echistatin binding and were estimated by the Prism GraphPad program. The Ki of the competing ligands were calculated according to the Cheng-Prusoff equation (Cheng Y. C., et al., Biochem. Pharmacol., 1973, 22, 3099). Values are the mean±log standard error of triplicate determinations from two independent experiments.

αvβ3 receptor = αvβ3 receptor (Homo sapiens, UniProt P05106+P06756); test: Solid-phase binding assay, inhibition of [125I]Echistatin binding to αvβ3 receptor
Method: as §4, §5

αvβ3 receptor, sequence (P06756 31-889 limits assumed): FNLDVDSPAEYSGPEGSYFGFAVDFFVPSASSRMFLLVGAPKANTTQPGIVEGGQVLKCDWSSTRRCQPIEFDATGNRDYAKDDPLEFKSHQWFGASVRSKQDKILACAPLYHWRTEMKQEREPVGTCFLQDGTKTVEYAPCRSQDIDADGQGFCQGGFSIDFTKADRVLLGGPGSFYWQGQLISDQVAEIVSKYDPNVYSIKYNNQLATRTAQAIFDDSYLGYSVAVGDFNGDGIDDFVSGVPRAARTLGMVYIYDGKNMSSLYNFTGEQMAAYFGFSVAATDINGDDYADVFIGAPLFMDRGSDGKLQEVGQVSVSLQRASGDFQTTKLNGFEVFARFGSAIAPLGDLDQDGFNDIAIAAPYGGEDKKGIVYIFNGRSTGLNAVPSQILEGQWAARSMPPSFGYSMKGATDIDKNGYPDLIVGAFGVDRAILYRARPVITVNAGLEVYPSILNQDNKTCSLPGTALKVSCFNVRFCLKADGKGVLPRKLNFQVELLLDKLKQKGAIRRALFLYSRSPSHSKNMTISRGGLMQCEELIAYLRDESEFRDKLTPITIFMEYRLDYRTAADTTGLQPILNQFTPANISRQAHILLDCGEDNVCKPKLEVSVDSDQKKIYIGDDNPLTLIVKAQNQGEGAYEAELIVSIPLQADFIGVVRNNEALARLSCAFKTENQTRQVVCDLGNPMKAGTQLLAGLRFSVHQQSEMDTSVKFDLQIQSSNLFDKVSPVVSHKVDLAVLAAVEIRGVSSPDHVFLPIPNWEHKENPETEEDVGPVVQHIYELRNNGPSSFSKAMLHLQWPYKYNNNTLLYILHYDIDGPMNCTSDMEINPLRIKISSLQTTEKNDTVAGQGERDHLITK
αvβ3 receptor, sequence (P06756 891-1048 partner limits assumed): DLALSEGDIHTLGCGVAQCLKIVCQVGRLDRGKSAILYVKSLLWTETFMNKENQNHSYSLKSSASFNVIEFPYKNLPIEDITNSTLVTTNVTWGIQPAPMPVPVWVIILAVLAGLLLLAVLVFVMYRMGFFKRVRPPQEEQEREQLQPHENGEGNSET
αvβ3 receptor, sequence (P05106 27-788): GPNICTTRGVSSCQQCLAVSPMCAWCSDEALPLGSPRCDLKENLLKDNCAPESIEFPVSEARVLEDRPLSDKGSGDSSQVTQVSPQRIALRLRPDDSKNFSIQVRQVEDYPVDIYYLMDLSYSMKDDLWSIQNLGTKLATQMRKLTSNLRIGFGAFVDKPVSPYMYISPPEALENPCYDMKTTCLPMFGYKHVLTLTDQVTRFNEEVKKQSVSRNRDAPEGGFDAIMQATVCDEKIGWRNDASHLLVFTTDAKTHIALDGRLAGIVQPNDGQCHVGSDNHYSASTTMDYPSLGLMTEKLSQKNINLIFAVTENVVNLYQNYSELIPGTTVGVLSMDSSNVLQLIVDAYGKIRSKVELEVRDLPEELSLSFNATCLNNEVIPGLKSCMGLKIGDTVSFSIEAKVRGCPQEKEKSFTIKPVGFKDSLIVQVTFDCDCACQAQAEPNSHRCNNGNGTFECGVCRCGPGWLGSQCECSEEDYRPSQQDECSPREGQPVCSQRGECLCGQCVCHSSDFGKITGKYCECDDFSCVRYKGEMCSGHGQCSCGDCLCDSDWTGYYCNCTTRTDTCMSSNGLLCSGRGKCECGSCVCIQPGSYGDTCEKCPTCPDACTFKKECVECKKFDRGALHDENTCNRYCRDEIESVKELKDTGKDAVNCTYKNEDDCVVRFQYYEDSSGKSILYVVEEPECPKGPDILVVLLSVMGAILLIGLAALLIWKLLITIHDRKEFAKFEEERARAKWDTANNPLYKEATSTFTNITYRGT
αvβ5 receptors, sequence (P06756 31-889 limits assumed): as the sequence (P06756 31-889 limits assumed) above
αvβ5 receptors, sequence (P06756 891-1048 partner limits assumed): as the sequence (P06756 891-1048 partner limits assumed) above
αvβ5 receptors, sequence (P18084 24-799): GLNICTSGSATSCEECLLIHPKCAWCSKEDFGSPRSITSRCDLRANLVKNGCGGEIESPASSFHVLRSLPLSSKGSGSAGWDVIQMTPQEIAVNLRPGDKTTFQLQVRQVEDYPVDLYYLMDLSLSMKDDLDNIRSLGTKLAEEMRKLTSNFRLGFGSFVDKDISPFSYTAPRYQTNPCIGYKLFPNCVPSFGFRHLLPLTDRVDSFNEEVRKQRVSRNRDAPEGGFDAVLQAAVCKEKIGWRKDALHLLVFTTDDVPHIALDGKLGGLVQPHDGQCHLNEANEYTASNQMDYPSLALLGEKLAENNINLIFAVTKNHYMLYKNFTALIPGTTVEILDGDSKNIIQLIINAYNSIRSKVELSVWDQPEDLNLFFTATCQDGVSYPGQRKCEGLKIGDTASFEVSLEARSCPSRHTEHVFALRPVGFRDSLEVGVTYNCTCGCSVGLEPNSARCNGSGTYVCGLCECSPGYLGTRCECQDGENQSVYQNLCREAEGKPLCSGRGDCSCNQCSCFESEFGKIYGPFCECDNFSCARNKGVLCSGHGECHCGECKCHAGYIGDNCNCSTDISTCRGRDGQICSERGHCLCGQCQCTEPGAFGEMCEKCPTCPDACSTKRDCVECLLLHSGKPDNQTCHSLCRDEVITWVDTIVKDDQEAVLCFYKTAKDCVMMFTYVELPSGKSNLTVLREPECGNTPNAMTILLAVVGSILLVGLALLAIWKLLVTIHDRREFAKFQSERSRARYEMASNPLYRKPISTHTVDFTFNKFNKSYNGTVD

## CC[C@@]1(O)C(=O)OCc2c1cc1n(c2=O)Cc2c-1nc1ccccc1c2C=NOCCNC(=O)OCc1ccc(NC(=O)[C@H](CCCNC(N)=O)NC(=O)[C@H](C)NC(=O)COCCOCCOCC(=O)NCc2ccc(C[C@@H]3NC(=O)[C@@H](Cc4ccccc4)NC(=O)[C@H](CC(=O)O)NC(=O)CNC(=O)[C@H](CCCNC(=N)N)NC3=O)cc2)cc1 [ST3833]
[1]
  IC50: 2100 ± 200 nM
[2]
  IC50: 900 ± 50 nM
αvβ5 receptors
  IC50: 87.8 ± 1.21 nM
  Ki: 68.2 nM
αvβ3 receptor
  IC50: 78.4 ± 1.5 nM
  Ki: 61 nM
